Measurements from doi:10.1101/2020.08.03.235622v1 (bioRxiv, 2020).
Like-named read-outs stand apart in the source and are kept apart here.

Experiments:
flagella (fliC) = settings: cited from earlier work
P. aeruginosa PA103 T3SS = type: cell-based, Pseudomonas aeruginosa
[1] = system: P. aeruginosa T3SS gene transcription (exoT, exoS, dsbA); experiment: qPCR of T3SS genes in P. aeruginosa; type: cell-based, Pseudomonas aeruginosa; settings: 60 μM cyclic peptomer; for transcription of exoT: PA103, low calcium, 50 μM MBX1641, 3 hrs
[2] = system: P. aeruginosa PAO1 T3SS (ExoS, ExsE); type: cell-based, Pseudomonas aeruginosa
Salmonella SPI-1 T3SS = type: cell-based, Salmonella enterica Typhimurium
HeLa cells = experiment: Host cell viability by LDH release; type: cell-based, human; settings: 9 μM, infected HeLa cells

For `O=[N+]([O-])c1cc(CN2CCN(c3ccc(F)cc3)CC2)c(O)c2ncccc12` [INP1855], the “lowest known inhibitory concentration (~), fliC/fla” value (flagella (fliC)) is listed as roughly 30 µM.
For “Propylamine, Benzylamine, D-Leu, L-Ile, L-Leu, and D-Phe (PBDLLD) (head to tail) [1EpDN]”, the IC50 (P. aeruginosa PA103 T3SS; read-out: IC50, inhibition of T3SS effector (ExoU) secretion in P. aeruginosa) was roughly 8 µM, the “transcription of exoT” value [1] was “did not inhibit transcription of exoT” and the “amount of secreted ExoS” value [2] was “significantly reduced”.
For “Propylamine, Benzylamine, L-Leu, L-Ile, D-Leu, and D-Phe (PBLLDD) (head to tail) [4EpDN]”, the “T3SS inhibitory activity (ExoU secretion), in words” value (P. aeruginosa PA103 T3SS) was “improved activity”, the IC50 (P. aeruginosa PA103 T3SS; read-out: IC50, ExoU secretion (PA, Psc/Ysc)) was 3.9 µM and the “concentration at which inhibition of SipA secretion was observed” value (Salmonella SPI-1 T3SS) was ~ 1.4 μM. For the same compound, the “concentration at which inhibition of SipC secretion was observed” value (Salmonella SPI-1 T3SS) was ~ 1 μM, the “expression of the effectors exoS and exoT” value ([1]; P. aeruginosa PAO1 lacking all known efflux pumps, 3 hrs) was “did not affect expression” and the “host cell viability as assayed by LDH release” value (HeLa cells) was “without affecting host cell viability”. The “amount of secreted ExoS” value [2] was “significantly reduced” and the “secretion of the regulator ExsE” value [2] was “did not significantly impact secretion”.
For `CC(Oc1ccc(Cl)cc1Cl)C(=O)NCc1ccc2c(c1)OCO2` (centres unmarked) [MBX1641, reference compound], the “transcription of exoT” value [1] was “did”.
In the case of `O=[N+]([O-])c1cc(CN2CCN(c3ccccc3)CC2)c(O)c2ncccc12` [INP1750], the “lowest known inhibitory concentration (~), fliC/fla” value (flagella (fliC)) is given as roughly 80 µM.
